Here are results for 7 compounds from US11717557B2, “Use of PRG4 as an anti-inflammatory agent” (Lubris LLC, priority 2015, dated 2023).

Residues, ends and D or L forms follow the SMILES beside them. *: point of attachment. Cbz = O=C(OCc1ccccc1)*

Assay [1] relates to NFκB nuclear translocation in RA-FLS. Nature of the assay: NFκB nuclear translocation after TNF-α stimulation of RA-FLS. In kind it is cell-based. The note with it: TNF-α 5 ng/mL; rhPRG4 200 μg/mL or MG 132 3 μM; 24 hours; p<0.001. On the procedure:
RA-FLS (400,000 cells/well) were cultured and stimulated with TNF-α (5 ng/mL) and treated with rhPRG4 (200 μg/mL) or a commercially available NFκB translocation inhibitor MG 132 (3 μM; Tocris Bioscience) for 24 hours in serum free media. Cells were harvested and nuclear extraction was performed using a commercially available kit (Thermo scientific). Total protein was measured using a micro bicinchonic acid (BCA) kit (Thermo scientific) and 3 μg of nuclear extract of each experimental group were used. The p50 subunit of NFκB was detected in the nuclear extract using a commercially available NFκB DNA binding assay kit (Abcam). Data is presented as the number of fold change in NFκB nuclear levels compared to untreated control. To evaluate whether inhibition of NFκB translocation by rhPRG4 is CD44 dependent, the above experiment was repeated in the presence or absence of IM7 CD44 antibody (1:1,000 dilution). Data represents the average of 3 independent experiments with at least triplicate wells per treatment.

The next assay deals with T1, CD44 (Homo sapiens, UniProt P16070).
T1 construct: purchased R & D systems
Put plainly: CD44 binding of sialidase-A / O-glycosidase digested rhPRG4, direct ELISA. The note with it: coating 30 μg/mL; digestion 16 hours at 37° C. Here is the method:
rhPRG4 was digested using sialidase A (Prozyme, USA), O-glycosidase (New England Biolabs, USA) or a combination of sialidase A and O-glycosidase for 16 hours at 37° C. In the sialidase A digestion, 12 μL of the enzyme (1 U/200 μL) was added to rhPRG4 in a total reaction volume of 180 μL and a rhPRG4 final concentration of 300 μg/mL. In the O-glycosidase digestion, 4.8 μL of the enzyme (40 million units/mL) was added to rhPRG4 in a total reaction volume of 180 μL and a rhPRG4 final concentration of 300 μg/mL under non-denaturing conditions. In the sialidase-A and O-glycosidase digestion, the enzymes were used in volumes identical to the ones stated above and incubated with rhPRG4 in a total reaction volume and final rhPRG4 concentration as stated above. The effect of sialidase-A and O-glycosidase digestions on rhPRG4 apparent molecular weight was determined by SDS-PAGE using 4-12% Bis-Tris gel (NuPage, life technologies, USA). A total of 20 μL of rhPRG4 or enzyme-digested rhPRG4 was run under reducing conditions ([…] for 60 min) followed by staining using Gelcode Blue Stain (Thermo Scientific, USA). Binding of enzymatically digested rhPRG4 to CD44 was compared to undigested rhPRG4 using the direct ELISA approach described above and using an rhPRG4 coating concentration of 30 μg/mL. Data represents the average of 4 independent experiments, each with triplicate wells per group.
(ELISA stands for enzyme-linked immunosorbent assay.)

In assay [2] the target is T2, CD44 IgG1Fc (Homo sapiens, UniProt P16070).
T2 construct: purchased R & D systems
Put plainly: Competition between rhPRG4 and HA on binding to CD44, ELISA. The note with it: rhPRG4 5 μg/mL. On the procedure: To evaluate the competition between rhPRG4 and either HMW HA or MMW HA on binding to CD44, microtiter plates were coated with either CD44 IgG1Fc or IgG1Fc at 1 μg/mL (100 μL per well) overnight at 4° C. Subsequently, wells were washed with PBS+0.1% tween 20 and wells were blocked using 2% BSA (300 μL per well) for at least 2 hours at room temperature. […] Following washing with PBS+0.1% tween 20, lubricin-specific monoclonal antibody (Mab 9G3) was added at 1:1,000 (100 μL per well) and incubated for 60 min at room temp. Following washing with PBS+0.1% tween 20, goat anti-mouse IgG-HRP (Thermo Scientific) at 1:1,000 dilution was added (100 μL per well) and incubated for 60 min at room temp. The assay was developed as described above. The absorbance values in the IgG1Fc wells were subtracted from the absorbance values in the CD44-IgG1Fc wells and the corrected absorbance values in the rhPRG4+HA groups were normalized to the absorbance values of the rhPRG4 group and data was expressed as percentage binding to CD44. The data represents an average of 4 independent assays, each with triplicate wells per group.

Assay [3] deals with Rheumatoid arthritis fibroblast-like synoviocytes (RA-FLS). Put plainly: Cytokine-induced RA-FLS proliferation (MTS). In kind it is cell-based. The note with it: 48 hours, p<0.05. Here is the method:
Rheumatoid arthritis fibroblast-like synoviocytes (RA-FLS; Cell Applications, USA) between 3rd and 6th passages were used to conduct these experiments. In sterile 96 well plates, RA-FLS (5,000 cells per well in 80 μL) were cultured in DMEM supplemented with 1% FBS and 1 mM pyruvate and stimulated with recombinant human interleukin-1 beta (IL-1β; R & D systems) at 20 ng/mL or tumor necrosis factor alpha (TNF-α; R & D systems) at 5 ng/mL for 48 hours at 37° C. in the absence or presence of rhPRG4 or HMW HA at a final concentration of 20, 40 or 80 μg/mL. The total volume in each well was 200 μL. Cell proliferation, an indication of inflammation, was determined using the CellTiter 96 AQueous one solution cell proliferation assay (MTS; Promega, USA) and the 490 nm absorbance was determined. Data is presented as the number of fold change in 490 nm absorbance compared to untreated control RA-FLS. The data represents the average of 3 independent experiments with at least triplicate wells per treatment. To evaluate the contribution of CD44 to the effect of rhPRG4 or HMW HA, RA-FLS were stimulated with IL-1β or TNF-α as described above. Treatment with rhPRG4 or HMW HA was conducted to a final concentration of 80 μg/mL in the absence or presence of IM7 (Abcam, USA), a CD44 neutralizing antibody that recognizes a conserved epitope across all CD44 isoforms (Samson et al., Exp Eye Res, 2014; 127C:14-19), at a final dilution of 1:200. The total volume in each well was 200 μl. Cell proliferation across the experimental groups was determined as described above and data is presented as the number of fold change in 490 nm absorbance compared to untreated control RA-FLS. The data represents the average of 3 independent experiments with at least triplicate wells per treatment.

The target in assay [4] is T2, CD44 IgG1Fc. Nature of the assay: Direct ELISA: binding of coated macromolecules to CD44-IgG1Fc versus IgG1Fc. The note with it: wells coated at 400 μg/mL; CD44-IgG1Fc or IgG1Fc 1 μg/mL; p<0.001 where significant. Here is the method:
High-binding microtiter plates (Corning, Sigma Aldrich, USA) were coated with rhPRG4 (Mr≅240 KDa), high molecular weight HA (HMW HA; Mr≈1,500 KDa) (R & D System, USA), medium molecular weight HA (MMW HA; Mr≈300 KDa) (R & D System) and vitronectin (Mr≅75 KDa) (Sigma Aldrich) at 400 μg/mL in PBS buffer (100 μL per well) overnight at 4° C. rhPRG4 is a full-length product produced by CHO-M cells (Lubris, Framingham, Mass., USA). Following washing with PBS+0.1% Tween 20, wells were blocked with 2% bovine serum albumin (BSA; 300 μL per well) for at least 2 hours at room temperature. CD44-IgG1Fc (R & D systems) or IgG1Fc (R & D systems), each at 1 μg/mL (100 μl per well), were added to the plate and incubated for 60 min at room temperature. Following washing with PBS+0.1% tween 20, anti-IgG1Fc-HRP (Sigma Aldrich) was added at 1:10,000 dilution (100 μL per well) and incubated for 60 min at room temp. Following washing with PBS+0.1% tween 20, the assay was developed using 1-step Turbo TMB ELISA reagent (ThermoScientific, USA) and absorbance was measured at 450 nm. The data represents an average of 4 independent assays, each with triplicate wells per group.

Assay [5] has as its system citrated whole human blood. Put plainly: LPS challenge, inflammatory cytokines in whole blood (Biochip Array). The note with it: LPS 10 μg/mL, versus saline. Format: cell-based. The text has this: Lipopolysaccharides (LPS) are found in the outer membrane of Gram-negative bacteria and elicit strong immune inflammatory responses in animals. The effect of LPS challenge on the production of inflammatory cytokines was studied in citrated whole human blood using Biochip Array technology to profile the generation of various cytokines and the modulation of their production. The generation of IL2, IL4, IL6, IL8, IL10, VEGF, IFNg, TNFa, IL1a, IL1b, MCP1 and EGF was studied in citrated whole blood samples supplemented with saline (1-10 ratio) and LPS at 10 μg/mL in samples incubated for 60 minutes at 37° C. These mixtures were centrifuged and the supernatant plasma was analyzed for the […] inflammatory biomarkers using a high sensitivity cytokine array on a Randox Invesitigator Biochip reader. These studies were run in duplicate and tabulated in the form of a table and a figure. As shown in FIGS. 8A-B, supplementation of lipopolysaccharide in a 1:10 dilution in whole blood results in an increase in production of the inflammatory cytokines IL-4, IL-6, IL-8, IL-10, VEGF, TNF-α, IL1-β, and MCP-1 under the specified conditions. No changes in IL2, IFNg, and IL1b were noted.

Turning to `CC(C)C[C@@H](C=O)NC(=O)[C@H](CC(C)C)NC(=O)[C@H](CC(C)C)NC(=O)OCc1ccccc1` [MG132, reference compound] (Cbz-Leu-Leu-Leu-aldehyde), in assay [1], the “NFκB nuclear translocation compared to TNF-α-treated RA-FLS” value is “significantly reduced”.

“O-glycosidase digested rhPRG4: rhPRG4 digested using O-glycosidase for 16 hours at 37° C.”: in the assay with CD44, the “percentage binding to CD44 compared to untreated control (undigested rhPRG4)” value (“percentage binding to CD44” below) is on record as “significant increase”.

As for hyaluronic acid [HMW HA], the “reduction of rhPRG4 binding to CD44 by an excess of HA” value at CD44 IgG1Fc [2] is on record as “approximately 50%”. Moreover, on CD44 IgG1Fc [2] (HA at 0.05, 0.25, 1, p<0.05), the “effect of HA on rhPRG4's binding to CD44” value is “significantly reduced”. Also, in assay [3] (IL-1β 20 ng/mL, treatment 40 and 80 μg/mL), the “RA-FLS proliferation with IL-1β stimulation” value is on record as “significantly suppressed”. Further, in assay [3] (TNF-α 5 ng/mL, treatment 20, 40 and 80 μg/mL), the “RA-FLS proliferation with TNF-α stimulation” value is “did not result in suppressing”. For the same compound, at CD44 IgG1Fc [4], the “450 nm absorbance in the CD44-IgG1Fc group versus the IgG1Fc group” value was “significantly higher”.

With lipopolysaccharide, the “production of IL-4, IL-6, IL-8, IL-10, VEGF, TNF-α, IL1-β and MCP-1” value in assay [5] (1:10 dilution in whole blood, 60 minutes at 37° C.) was “increase”. Moreover, the “IL2, IFNg and IL1b” value in assay [5] (60 minutes at 37° C.) is “No changes”. For the same compound, the “percent changes in IL6, IL8, VEGF and TNFa” value in assay [5] (60 minutes) is given as “pronounced increase”.

As to “sialidase-A and O-glycosidase-digested rhPRG4: rhPRG4 digested using a combination of sialidase A and O-glycosidase”, the “percentage binding to CD44” value in the assay with CD44 is “significantly higher”.

As to “sialidase-A digested rhPRG4: rhPRG4 digested using sialidase A for 16 hours at 37° C.”, the “percentage binding to CD44” value in the assay with CD44 is given as “significant increase”.

For the compound “vitronectin: vitronectin, Mr≅75 KDa (Sigma Aldrich), shares sequence homology with lubricin”, in the assay with CD44 IgG1Fc [4], the “450 nm absorbance in the CD44-IgG1Fc group versus the IgG1Fc group” value is “no significant difference”.
